Results reported in US8461183B2, “PPAR agonist compounds, preparation and uses” (Genfit, priority 2008, dated 2013).

Tests used:
Format in all cases: cell-based
hPPARγ = molecular target: T1, hPPARγ (Homo sapiens, UniProt P37231); test: Gal4-hPPARγ chimera transactivation (luciferase) in COS-7 cells; conditions: 24 hours; for EC50: luciferase, read-out: PPARγ EC50; for Emax: relative to maximum activation obtained with rosiglitazone, read-out: PPARγ TOP % (maximum activation)
T1 construct: corresponding to the DEF domains (structural elements of the promoter of the PPARs: D=hinge, EF=ligand fixation domain and AF2 fixation site); expressed in transfected cells; host or cells: COS-7 (monkey kidney fibroblasts)
T1 sequence (P37231 238-503 limits assumed): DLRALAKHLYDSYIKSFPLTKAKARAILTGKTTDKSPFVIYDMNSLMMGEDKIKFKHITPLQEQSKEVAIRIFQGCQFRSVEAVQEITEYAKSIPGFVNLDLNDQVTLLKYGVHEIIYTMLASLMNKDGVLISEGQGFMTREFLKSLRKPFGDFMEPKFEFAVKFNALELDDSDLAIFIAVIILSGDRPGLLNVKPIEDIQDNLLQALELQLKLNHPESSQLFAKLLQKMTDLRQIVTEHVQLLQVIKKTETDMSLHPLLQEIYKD
Protocol: (§1) Activation of PPARs is evaluated in vitro on a line of monkey kidney fibroblasts (COS-7) by measuring the transcriptional activity of chimeras consisting of the DNA binding domain of Gal4 transcription factor of yeast and of the ligand binding domain of the various PPARs of human origin (hPPAR).
(§2) The COS-7 cells are from ATCC and are cultivated in DMEM medium supplemented with 10% (vol/vol) of fetal calf serum, 1% of penicillin/streptomycin (Biochrom, AG), 1% of amino acids (Gibco) and 1% of sodium pyruvate (Gibco). The cells are incubated at 37° C. in a humid atmosphere containing 5% CO2.
(§3) The plasmids Gal4(RE)_TkpGL3, pGal4-hPPARα, pGal4-hPPARγ, pGal4-hPPARδ and pGal4-φ are described in the literature (Raspe E et al., 1999). The constructs pGal4-hPPARα, pGal4-hPPARγ and pGal4-hPPARδ were obtained by cloning, into the pGal4-φ vector, DNA fragments amplified by PCR corresponding to the DEF domains (structural elements of the promoter of the PPARs: D=hinge, EF=ligand fixation domain and AF2 fixation site) of the human nuclear receptors PPAα, PPARγ and PPARδ.
(§4) The adherent COS-7 cells are transfected with 40 μg of DNA per 225 cm^2 flask, with a pGal4-hPPAR/Gal4(RE)_TkpGL3 ratio of 1/10, in the presence of 10% of fetal calf serum. The cells are then detached and seeded in the absence of serum in 384-well plates (2×10^4 cells/well) then incubated for 4 hours at 37° C. The compounds are then diluted in a 96-well plate and then transferred to the 384-well plate. Activation with the test compounds is effected for a further 24 hours at 37° C. in the presence of 1% of synthetic serum Ultroser™ (Biosepra). These last 2 stages are automated by means of a Genesis Freedom 200™ station (Tecan). At the end of the experiment, the cells are lysed and the luciferase activity is determined using the Steady-Lite™ HTS (Perkin Elmer) according to the supplier's recommendations.
(§5) The test data are summarized in Table 8-1 below, which presents, for each compound, the values of maximum activation (TOP %) and the EC50 values measured for each isoform of PPAR.

hPPARδ = molecular target: T2, hPPARδ (Homo sapiens, UniProt Q03181); test: Gal4-hPPARδ chimera transactivation (luciferase) in COS-7 cells; conditions: COS-7 cells, Gal4-hPPARδ, 24 hours; for EC50: luciferase, read-out: PPARδ EC50; for Emax: relative to maximum activation obtained with GW501516, read-out: PPARδ TOP % (maximum activation)
T2 construct: corresponding to the DEF domains (structural elements of the promoter of the PPARs: D=hinge, EF=ligand fixation domain and AF2 fixation site); expressed in transfected cells; host or cells: COS-7 (monkey kidney fibroblasts)
T2 sequence (Q03181 211-439 limits assumed): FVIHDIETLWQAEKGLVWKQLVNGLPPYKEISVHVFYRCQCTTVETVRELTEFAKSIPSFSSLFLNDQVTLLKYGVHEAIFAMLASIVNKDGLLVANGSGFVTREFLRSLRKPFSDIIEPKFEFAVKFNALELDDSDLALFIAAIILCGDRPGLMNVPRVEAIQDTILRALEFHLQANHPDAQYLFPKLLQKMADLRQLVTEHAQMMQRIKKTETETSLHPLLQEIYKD
Protocol: as §1, §2, §3, §4, §5

hPPARα = molecular target: T3, hPPARα (Homo sapiens, UniProt Q07869); test: Gal4-hPPARα chimera transactivation (luciferase) in COS-7 cells; conditions: COS-7 cells, Gal4-hPPARα, 24 hours; for EC50: luciferase, read-out: PPARα EC50; for Emax: relative to maximum activation obtained with fenofibric acid, read-out: PPARα TOP % (maximum activation)
T3 construct: corresponding to the DEF domains (structural elements of the promoter of the PPARs: D=hinge, EF=ligand fixation domain and AF2 fixation site); expressed in transfected cells; host or cells: COS-7 (monkey kidney fibroblasts)
T3 sequence (Q07869 239-466 limits assumed): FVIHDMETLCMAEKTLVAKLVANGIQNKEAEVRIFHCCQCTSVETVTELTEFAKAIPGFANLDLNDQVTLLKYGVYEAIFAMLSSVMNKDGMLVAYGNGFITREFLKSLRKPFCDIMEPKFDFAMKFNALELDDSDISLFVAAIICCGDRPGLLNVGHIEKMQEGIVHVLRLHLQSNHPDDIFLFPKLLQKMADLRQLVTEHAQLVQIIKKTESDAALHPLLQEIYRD
Protocol: as §1, §2, §3, §4
The test data are summarized in Table 8-1 below, which presents, for each compound, the values of maximum activation (TOP %) and the EC50 values measured for each isoform of PPAR. The values of maximum activation are expressed in percentages relative to the maximum activations obtained with reference agonists: fenofibric acid for PPARα, rosiglitazone for PPARγ and 2-methyl-4-((4-methyl-2-(4-trifluoromethylphenyl)-1,3-thiazol-5-yl)-methylsulfanyl)phenoxyacetic acid (also called GW501516) for PPARδ.

| Compound | EC50 (hPPARγ) | Emax (hPPARγ) | EC50 (hPPARδ) | Emax (hPPARδ) | EC50 (hPPARα) | Emax (hPPARα) |
| --- | --- | --- | --- | --- | --- | --- |
| COc1cc(CCC(=O)O)ccc1NCc1ccc(-c2ccccc2)nc1OC [Cpd 44, 3-(3-methoxy-4-(((2-methoxy-6-phenylpyridin-3-yl)methyl)amino)-phenyl)-propanoic acid] | 2640 nM | 72.2% | 2380 nM | 80.6% | 929 nM | 55.5% |
| COc1ncc(-c2ccc3ccccc3c2)cc1CNc1ccc(CCC(=O)O)cc1 [Cpd 50, 3-(4-(((2-methoxy-5-(naphthalen-2-yl)pyridin-3-yl)methyl)amino)phenyl)-propanoic acid] | 1920 nM | 63.7% | 770 nM | 103% | 771 nM | 46.8% |
| COc1nc(-c2ccccc2)ccc1CNc1cccc(OCC(=O)O)c1 [Cpd 14, 2-(3-(((2-methoxy-6-phenylpyridin-3-yl)methyl)amino)phenoxy)ethanoic acid] | 24300 nM | 53.7% | 16200 nM | 103% | 33300 nM | 58.4% |
| COc1nc(-c2ccccc2)ccc1CSc1ccc(CCC(=O)O)cc1 [Cpd 37, 3-(4-((2-methoxy-6-phenylpyridin-3-yl)methylthio)phenyl)propanoic acid] | 9170 nM | 98.5% | 12700 nM | 94.7% | 9950 nM | 65.5% |
| CCC(Nc1ccc(CCC(=O)O)cc1)c1ccc(-c2ccccc2)nc1OC (stereo not drawn) [Cpd 34, 3-(4-(1-((2-methoxy-6-phenylpyridin-3-yl)propyl)amino)phenyl)propanoic acid] | 2330 nM | 80.4% | 526 nM | 108% | 1420 nM | 67.6% |
| COc1nc(-c2ccc(C(F)(F)F)cc2)ccc1CNc1ccc(SCC(=O)O)cc1 [Cpd 23, 2-(4-(((2-methoxy-6-(4-(trifluoromethyl)phenyl)pyridin-3-yl)methyl)amino)-phenylthio)ethanoic acid] | 2840 nM | 75.6% | 501 nM | 85.4% | 44 nM | 65.3% |
| COc1nc(-c2ccccc2)c(-c2ccccc2)cc1CNc1ccc(SCC(=O)O)cc1 [Cpd 28, 2-(4-(((2-methoxy-5,6-diphenylpyridin-3-yl)methyl)amino)phenylthio)ethanoic acid] | 11300 nM | 45% | 25200 nM | 49.1% | 1740 nM | 55.4% |
| COc1nc(-c2ccccc2)ccc1CNc1ccc(SCC(=O)O)cc1 [Cpd 16, 2-(4-(((2-methoxy-6-phenylpyridin-3-yl)methyl)amino)phenylthio)ethanoic acid] | 5180 nM | 70% | 3370 nM | 85.2% | 510 nM | 78% |
| CCCCCCOc1nc(-c2ccccc2)ccc1COc1ccc(OCC(=O)O)cc1 [Cpd 15, 2-(4-((2-hexyloxy-6-phenylpyridin-3-yl)methoxy)phenoxy)ethanoic acid] | 12300 nM | 46.6% | 1520 nM | 96.5% | 3240 nM | 78.2% |
| COc1nc(-c2ccccc2)ccc1COc1ccc(OC(C)C(=O)O)cc1 (stereo not drawn) [Cpd 3, 2-(4-((2-methoxy-6-phenylpyridin-3-yl)methoxy)phenoxy)propanoic acid] | 3240 nM | 43.6% | 1200 nM | 114% | 432 nM | 68.7% |
| CC(Oc1ccc(NCc2ccc(-c3ccccc3)nc2OC(C)(C)C)cc1)C(=O)O (stereo not drawn) [Cpd 10, 2-(4-(((2-tert-butyloxy-6-phenylpyridin-3-yl)methyl)amino)phenoxy)propanoic acid] | 10500 nM | 25.6% | 754 nM | 96.7% | 6060 nM | 53.2% |
